Measurements from patent US8895568B2, “Compositions comprising substituted pteridines as agrochemicals” (Dow AgroSciences LLC, priority 2009, dated 2014).
Read-outs that look alike come from different tables or passages of the source.

Tests used:
Format in all cases: in vivo
[1] = test system: Pseudoperonospora cubensis; test: Cucumber Downy Mildew (PSPECU), foliar spray, percent disease control; details: read-out: PSPECU percent control
Protocol: The activity of the compounds as effective fungicides was determined by applying the compounds to plants and observing control of fungal disease. The compounds were formulated at 200 ppm in 10 vol. % acetone plus 90 vol. % Triton X water (deionized water 99.99 wt %+0.01 wt % Triton X100), giving a “formulated test compound.” In a few cases, compounds were formulated at 75 or 8.3 ppm rather than 200 ppm in 10 vol. % acetone plus 90 vol. % Triton X water (deionized water 99.99 wt. %+0.01 wt. % Triton X100), giving a “formulated test compound.” Formulated test compounds were applied to plants using a turn table sprayer fitted with two opposing air atomization nozzles which delivered approximately 1500 L/ha of spray volume. All plants were inoculated with spores of the fungus the day after treatment, then incubated in an environment conducive to disease development. Disease severity was evaluated 4 to 15 days later, depending on the disease and the speed of disease development. The following experiments were performed in the laboratory to determine the fungicidal efficacy of the compounds of the invention. Cucumber Downy Mildew (causal agent Pseudoperonospora cubensis; Bayer code […]): Cucumber plants (variety Bush Champion) were grown from seed in a soil-less peat-based potting mixture (Metromix) until the first true leaf was 20-80% expanded. Each pot contained 1 seedling. These plants were sprayed until wet with the formulated test compound. On the following day, the leaves were inoculated with an aqueous suspension of downy mildew sporangia and the plants were kept in high humidity for one day to permit sporangia to germinate and infect the leaf. The plants were then incubated in a growth chamber until disease developed on untreated control plants. […] The effectiveness of the test compounds at controlling disease when sprayed on leaves was determined by assessing the severity of disease on treated plants, then converting the severity to percent control based on the level of disease on untreated, inoculated plants. Data are the level (in percent) at which the given disease was controlled when the given compound was applied to the foliage of the plants at 200 ppm. In a few cases (noted in the table) the compound was applied to the plants at 75 ppm or 8.3 ppm.

[2] = test system: Cochliobolus sativus; test: Spot Blotch of Wheat (COCHSA), foliar spray, percent disease control
[3] = test system: Colletotricum lagenarium; test: Cucumber Anthracnose (COLLLA), foliar spray, percent disease control
Protocol: The activity of the compounds as effective fungicides was determined by applying the compounds to plants and observing control of fungal disease. The compounds were formulated at 200 ppm in 10 vol. % acetone plus 90 vol. % Triton X water (deionized water 99.99 wt %+0.01 wt % Triton X100), giving a “formulated test compound.” In a few cases, compounds were formulated at 75 or 8.3 ppm rather than 200 ppm in 10 vol. % acetone plus 90 vol. % Triton X water (deionized water 99.99 wt. %+0.01 wt. % Triton X100), giving a “formulated test compound.” Formulated test compounds were applied to plants using a turn table sprayer fitted with two opposing air atomization nozzles which delivered approximately 1500 L/ha of spray volume. All plants were inoculated with spores of the fungus the day after treatment, then incubated in an environment conducive to disease development. Disease severity was evaluated 4 to 15 days later, depending on the disease and the speed of disease development. The following experiments were performed in the laboratory to determine the fungicidal efficacy of the compounds of the invention. Cucumber Anthracnose (causal agent Colletotricum lagenarium; Bayer code COLLLA): Cucumber plants (variety Bush Champion) were grown from seed in a soil-less peat-based potting mixture (Metromix) until the first true leaf was 20-80% expanded. Each pot contained 1 seedling. These plants were sprayed until wet with the formulated test compound. On the following day, the leaves were inoculated with an aqueous spore suspension of Colletotricum lagenarium and the plants were kept in high humidity for one day to permit spores to germinate and infect the leaf. The plants were then transferred to a growth chamber until disease developed on untreated control plants. […] The effectiveness of the test compounds at controlling disease when sprayed on leaves was determined by assessing the severity of disease on treated plants, then converting the severity to percent control based on the level of disease on untreated, inoculated plants. Data are the level (in percent) at which the given disease was controlled when the given compound was applied to the foliage of the plants at 200 ppm. In a few cases (noted in the table) the compound was applied to the plants at 75 ppm or 8.3 ppm.

[4] = Bipolaris sorokiniana, foliar; read-out: COCHSA percent control
[5] = Bipolaris sorokiniana; foliar spray; read-out: COCHSA percent control

Structure (SMILES) | pest or weed control at 200 µg/mL ([1]; foliar) [%] | pest or weed control at 200 µg/mL [2, 4] [%] | pest or weed control at 200 µg/mL ([3]; foliar) [%] | pest or weed control at 200 µg/mL ([1]; foliar spray) [%] | pest or weed control at 200 µg/mL [2, 5] [%] | pest or weed control at 200 µg/mL ([3]; foliar spray) [%] | pest or weed control at 200 µg/mL ([2]; Bipolaris sorokiniana, foliar, read-out: COCHSA percent control) [%]
N#Cc1cc2ccccc2nc1Oc1ccc(CCNc2ncnc3nccnc23)cc1 [Compound 127] | 50 to 79 | 0 to 49 | 0 to 49 |  |  |  | 
c1ccc(OCc2nnc(Oc3ccc(CCNc4ncnc5nccnc45)cc3)s2)cc1 [Compound 27] | 0 to 49 | 0 to 49 | 0 to 49 |  |  |  | 
Cc1cc(Oc2cc(C(F)(F)F)ccn2)ccc1OCCNc1ncnc2nccnc12 [Compound 201] |  |  |  | 80 to 100 | 0 to 49 | 0 to 49 | 
CC(C)(C)c1ccnc(Oc2ccc(CCNc3ncnc4nccnc34)cc2)c1 [Compound 207, {2-[4-(4-tert-Butylpyridin-2-yloxy)-phenyl]-ethyl}-pteridin-4-ylamine] |  |  |  | 80 to 100 | 0 to 49 | 0 to 49 | 
CC(C)(C)COC(=O)c1ccnc(Oc2ccc(CCNc3ncnc4nccnc34)cc2)c1 [Compound 182] | 80 to 100 | 0 to 49 | 0 to 49 |  |  |  | 
Fc1cnc(C(F)(F)F)c(F)c1Oc1ccc(CCNc2ncnc3nccnc23)cc1 [Compound 72] | 80 to 100 | 0 to 49 | 50 to 79 |  |  |  | 
CC(Nc1ncnc2nccnc12)c1ccc(O)cc1 (stereo not drawn) [Compound 65, 4-[1-(Pteridin-4-ylamino)-ethyl]-phenol] | 50 to 79 | 0 to 49 | 0 to 49 |  |  |  | 
N#Cc1ccnc(Oc2cccc(OCCNc3ncnc4nccnc34)c2)c1 [Compound 88] | 80 to 100 | 0 to 49 | 0 to 49 |  |  |  | 
COc1cc(C(F)(F)F)cc(Oc2ccc(OCCNc3ncnc4nccnc34)cc2)n1 [Compound 168] | 0 to 49 | 0 to 49 | 0 to 49 |  |  |  | 
Brc1nsc(Oc2ccc(CCNc3ncnc4nccnc34)cc2)n1 [Compound 33] | 0 to 49 | 0 to 49 | 0 to 49 |  |  |  | 
Cc1c(CCNc2ncnc3nccnc23)ccc(Oc2c(F)cnc(C(F)(F)F)c2F)c1C [Compound 149] | 80 to 100 | 0 to 49 | 0 to 49 |  |  |  | 
COc1cc(C(C)(F)F)cc(Oc2ccc(CCNc3ncnc4nccnc34)cc2)n1 [Compound 191, (2-{4-[4-(1,1-Difluoroethyl)-6-methoxypyridin-2-yloxy]-phenyl}-ethyl)-pteridin-4-yl-amine] | 80 to 100 | 0 to 49 | 50 to 79 |  |  |  | 
c1cc(-c2nnc(Oc3ccc(CCNc4ncnc5nccnc45)cc3)s2)ccn1 [Compound 23] | 0 to 49 | 0 to 49 | 0 to 49 |  |  |  | 
FC(F)(F)c1cc(Oc2ccc(CCNc3ncnc4nccnc34)cc2)nc(C(F)(F)F)c1 [Compound 115] | 80 to 100 | 0 to 49 | 0 to 49 |  |  |  | 
Cc1cc(C(F)(F)F)cc(Oc2ccc(CCNc3ncnc4nccnc34)cc2)n1 [Compound 69] | 80 to 100 | 0 to 49 | 80 to 100 |  |  |  | 
c1ccc(-c2nsc(Oc3ccc(CCNc4ncnc5nccnc45)cc3)n2)cc1 [Compound 22] | 50 to 79 | 0 to 49 | 50 to 79 |  |  |  | 
FC(F)(F)c1ccnc(Oc2cccc(OCCNc3ncnc4nccnc34)c2)c1 [Compound 86] | 80 to 100 | 0 to 49 | 0 to 49 |  |  |  | 
Cc1nc2ncnc(NCCc3ccc(O)cc3)c2nc1C [Compound 161] | 0 to 49 | 0 to 49 | 0 to 49 |  |  |  | 

Structure (SMILES) | pest or weed control at 200 µg/mL ([1]; foliar) [%] | pest or weed control at 200 µg/mL [2, 4] [%] | pest or weed control at 200 µg/mL ([3]; foliar) [%] | pest or weed control at 200 µg/mL ([1]; foliar spray) [%] | pest or weed control at 200 µg/mL [2, 5] [%] | pest or weed control at 200 µg/mL ([3]; foliar spray) [%] | pest or weed control at 200 µg/mL ([2]; Bipolaris sorokiniana, foliar, read-out: COCHSA percent control) [%]
O=C(c1ccnc(Oc2ccc(CCNc3ncnc4nccnc34)cc2)c1)C1CC1 [Compound 64] | 80 to 100 | 0 to 49 | 0 to 49 |  |  |  | 
CCOc1cc(CCNc2ncnc3nccnc23)ccc1Oc1cc(C(C)C)ccn1 [Compound 205] |  |  |  | 80 to 100 | 0 to 49 | 0 to 49 | 
COc1cc(C(F)(F)F)cc(Oc2ccc(CCNc3ncnc4nccnc34)cc2F)n1 [Compound 185] | 80 to 100 | 0 to 49 | 0 to 49 |  |  |  | 
Cc1nc(NCCc2ccc(O)cc2)c2nc(C)c(C)nc2n1 [Compound 209] |  |  |  | 0 to 49 | 0 to 49 | 0 to 49 | 
COc1cc(CCNc2ncnc3nccnc23)ccc1O [Compound 37] | 0 to 49 | 0 to 49 | 0 to 49 |  |  |  | 
FC(F)(F)c1ccnc(Oc2ccc(OCCNc3ncnc4nccnc34)cc2)c1 [Compound 83] | 80 to 100 | 0 to 49 | 80 to 100 |  |  |  | 
CC(C)OC(=O)c1ccnc(Oc2ccc(CCNc3ncnc4nccnc34)cc2)c1 [Compound 173] | 80 to 100 | 0 to 49 | 0 to 49 |  |  |  | 
N#Cc1c(Cl)cccc1Oc1ccc(CCNc2ncnc3nccnc23)cc1 [Compound 61] | 80 to 100 | 0 to 49 | 0 to 49 |  |  |  | 
COc1ccc(CCNc2ncnc3nccnc23)c(F)c1 [Compound 62] | 80 to 100 | 0 to 49 | 0 to 49 |  |  |  | 
Fc1nc(C(F)(F)F)c(F)c(Oc2ccc(CCNc3ncnc4nccnc34)cc2)c1F [Compound 89] | 80 to 100 | 0 to 49 | 0 to 49 |  |  |  | 
Oc1cccc(CCNc2ncnc3nccnc23)c1 [Compound 20] | 0 to 49 | 0 to 49 | 0 to 49 |  |  |  | 
COc1cc(CCNc2ncnc3nccnc23)cc(OC)c1O [Compound 181] | 0 to 49 | 0 to 49 | 0 to 49 |  |  |  | 
N#Cc1c(Cl)cncc1Oc1ccc(CCNc2ncnc3nccnc23)cc1 [Compound 35] | 80 to 100 | 0 to 49 | 0 to 49 |  |  |  | 
CC(Sc1ncnc2nccnc12)c1ccc(C#N)cc1 (stereo not drawn) [Compound 78] | 0 to 49 | 0 to 49 | 0 to 49 |  |  |  | 
CC(C)(C)OC(=O)N(CCc1ccc(O[Si](C)(C)C(C)(C)C)cc1)c1ncnc2nccnc12 [Compound 134, {2-[4-(tert-Butyldimethylsilanyloxy)-phenyl]-ethyl}-pteridin-4-yl-carbamic acid tert-butyl ester] | 0 to 49 |  | 0 to 49 |  |  |  | 0 to 49
FC(F)(F)c1ccc(Oc2cccc(OCCNc3ncnc4nccnc34)c2)nc1 [Compound 87] | 80 to 100 | 0 to 49 | 0 to 49 |  |  |  | 
COc1ccc(CCNc2ncnc3nccnc23)cc1Br [Compound 210] |  |  |  | 80 to 100 | 0 to 49 | 0 to 49 | 
